According to US6750221B1 (BASF Aktiengesellschaft, priority 1999, dated 2004):
Like-named read-outs stand apart in the source and are kept apart here.

What was measured:
[1] = molecular target: T1, h5-HT5 receptor (Homo sapiens, UniProt P47898); assay: Saturation binding of [3H]-5-CT to membranes of h5-HT5 receptor-expressing cells; conditions: 30° C., 90 min, read-out: dissociation constant Kd
T1 construct: expressed in transfected cells; host or cells: HEK293 cells (CHO cells obtained analogously), pcDNA3 plasmid, neomycin selection; membranes prepared
T1 sequence (P47898 whole entry): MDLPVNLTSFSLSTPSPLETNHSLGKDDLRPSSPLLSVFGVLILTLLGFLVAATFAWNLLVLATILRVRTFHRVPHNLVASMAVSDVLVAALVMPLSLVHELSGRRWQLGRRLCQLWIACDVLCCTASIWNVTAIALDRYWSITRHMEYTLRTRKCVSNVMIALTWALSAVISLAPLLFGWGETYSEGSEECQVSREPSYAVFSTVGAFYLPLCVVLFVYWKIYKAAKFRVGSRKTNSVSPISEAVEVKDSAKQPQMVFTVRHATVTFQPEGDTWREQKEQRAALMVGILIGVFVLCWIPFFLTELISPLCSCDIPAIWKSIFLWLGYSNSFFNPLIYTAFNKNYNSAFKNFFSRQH
Experimental: The gene coding for the human 5-HT5 receptor was isolated from human tissues in a known manner by means of 3′-5′-RT-PCR (RACE system, Boehringer Mannheim). The gene sequence was then inserted into a plasmid carrying the neomycin resistance gene (pcDNA3; Invitrogen, Germany) and amplified in E. coli according to the manufacturer's instructions. A preparation of the resulting plasmid was mixed with Lipofectamin® (Gibco Life-Sciences, Germany), and HEK293 cells were incubated with a thin layer of this transfection mixture in petri dishes (2.5 cm). The transfection mixture was then replaced by neomycin-containing culture medium. […]
The methodology is essentially known (Ress S. et al., FEBS Letters 335:242-246 (1994)). […] The filters were washed at 4° C. with 9 ml of buffer B. The radioactivity retained on the filters was measured by means of liquid scintillation counting, 5 ml of Ultima-Gold (Packard) being used.
The saturation parameters of the [^3H]-5-CT binding was determined both by nonlinear regression analysis and from linear plots using the SigmaPlot software (Jandel Scientific, Germany). Competition curves were set up in which the radioactive binding is expressed as a percentage proportion of the total binding. Half maximal inhibition constants IC50 and Hill-coefficients (nH) were determined by means of nonlinear regression analysis. […]

[2] = molecular target: T1, h5-HT5 receptor; assay: [3H]-5-CT binding competition on h5-HT5 membranes
Experimental: Membranes obtained according to Example 2 (200 μl) were incubated in the presence of 2 nM [^3H]-5-CT in a total volume of 600 μl in buffer B with increasing concentrations of selected compounds. After an incubation time of 75 min at 30° C., the samples were filtered at 4° C. through GF/B filters embedded in 0.3% polyethyleneimide using buffer B. The filters were washed with 9 ml of buffer B. The radioactivity retained on the filters was determined as in Reference Example 3.
According to Reference Example 4, the binding affinities of serotoninergic compounds were determined by means of [^3H]-5-CT binding competition.

[3] = test system: male Long Evans rats; assay: Neuroprotective action: MCA occlusion (experimental cerebral stroke); assay type: in vivo, rat; conditions: 90 min after MCA occlusion, infarct volume 22 hours after occlusion
Experimental: The experiments were performed on male Long Evans rats. Under nitrous oxide-assisted halothane anesthesia, the middle cerebral artery (MCA) was severed and permanently ligated distally, as described in the literature. The resulting infarct volume was determined 22 hours after MCA occlusion.

[4] = test system: hippocampal neurons; assay: Neuroprotective action: experimental brain trauma of the rat (lateral fluid percussion); assay type: in vivo; conditions: 20 + 20 mg/kg i.p., 15 + 120 min post trauma; 14 days after traumatization
Description: The lateral fluid percussion method (McIntosh TK, Neuroscience 28, 233 244, 1989) was used in order to produce an experimental brain trauma in the rat which is suitable for the testing of potential neuroprotective substances. By means of this technique, controlled and consistent tissue damage was produced underneath the site of the impact, which included the neocortex, the hippocampus and the thalamus.
The right parietotemporal region of the skull was exposed in the anesthetized rat. The skull was trepanned through the parietal cortex (about 4 mm diameter), the dura being left intact. A Luer lock attachment was fixed to the skull using dental cement through the trepanation. After the dental cement had hardened, the rat was connected to the fluid percussion apparatus according to McIntosh. This consisted of a cylinder filled with 0.9% NaCl solution, one end of the cylinder being closed by a piston, while the other end was connected via a pressure transducer to a Luer lock attachment. […]
The rats were sacrificed 14 days after traumatization for removal of the brain. […] For the quantification of the neuronal damage, cell counts were carried out bilaterally in the rostral hippocampus; the proportion of intact cells in the dentate gyrus was determined on the traumatized (right) and the (left) opposite side. […]

[5] = 2 + 1 mg/kg + mg/kg/h i.v. bolus then infusion

Structure (SMILES)	Ki [2] [nM]	Infarct volume, % of the control [mean value ± SD] [3, 5]	Quotient m ± sm of neuron count of the trauma side to the contralateral side (hippocampus) [4]	also measured
NCCc1c[nH]c2ccc(C(N)=O)cc12 [Compound 5-CT, 5-carboxamidotryptamine, reference compound]	–	–	–	Kd [1]: 0.57 nM; Ki ([2]; 2 nM [3H]-5-CT, 75 min at 30° C., Ki=IC50/(1+C/Kd)): 1.44 nM
CN1CCc2c(sc3ncn(CCN4CCN(c5cccc(C(F)(F)F)c5)CC4)c(=O)c23)C1 [Compound A, 3,4,5,6,7,8-Hexahydro-7-methyl-3-[2-(4-(3-trifluoromethyl-phenyl)piperazin-1-yl)ethyl]pyrido[4′,3′:4,5]thieno[2,3-d]-pyrimidin-4-one]	661	–	–	Infarct volume, % of the control [mean value ± SD] ([3]; 4 + 2 mg/kg + mg/kg/h i.v. bolus then infusion): 62 ± 18 % of the control
CCN1CCc2sc3ncn(CCN4CCN(c5cccc6ccccc56)CC4)c(=O)c3c2C1 [Compound B, 3,4,5,6,7,8-Hexahydro-6-ethyl-3-[2-(4-(1-naphthyl)piperazin-1-yl)ethyl]pyrido[3′,4′:4,5]thieno[2,3-d]pyrimidin-4-one]	124	66 ± 19 % of the control	0.64 ± 0.03	–
COc1ccc2cccc(N3CCN(CCn4cnc5sc6c(c5c4=O)CCN(C)C6)CC3)c2c1 [Compound C]	237	–	0.56 ± 0.05	Infarct volume, % of the control ([3]; 1 + 0.5 mg/kg + mg/kg/h i.v. bolus then infusion): 67 % of the control
CCCN(CCC)C1CCc2cccc(O)c2C1 (stereo not drawn) [R(+)-8-OH-DPAT, 8-hydroxy-2-(di-n-propylamino)tetralin, reference compound]	–	72 ± 32 % of the control	–	–
